Experimental data taken from BindingDB's records for doi:10.1021/ja0277226 (Millennium Pharmaceuticals, 2002).

Experiments:
[1] = biological target: T1, Angiotensin-converting enzyme (Sus scrofa, UniProt A1YQ85); experiment: Enzyme Inhibition Assay; details: pH 7.5; 22 °C
T1 sequence (A1YQ85 whole entry): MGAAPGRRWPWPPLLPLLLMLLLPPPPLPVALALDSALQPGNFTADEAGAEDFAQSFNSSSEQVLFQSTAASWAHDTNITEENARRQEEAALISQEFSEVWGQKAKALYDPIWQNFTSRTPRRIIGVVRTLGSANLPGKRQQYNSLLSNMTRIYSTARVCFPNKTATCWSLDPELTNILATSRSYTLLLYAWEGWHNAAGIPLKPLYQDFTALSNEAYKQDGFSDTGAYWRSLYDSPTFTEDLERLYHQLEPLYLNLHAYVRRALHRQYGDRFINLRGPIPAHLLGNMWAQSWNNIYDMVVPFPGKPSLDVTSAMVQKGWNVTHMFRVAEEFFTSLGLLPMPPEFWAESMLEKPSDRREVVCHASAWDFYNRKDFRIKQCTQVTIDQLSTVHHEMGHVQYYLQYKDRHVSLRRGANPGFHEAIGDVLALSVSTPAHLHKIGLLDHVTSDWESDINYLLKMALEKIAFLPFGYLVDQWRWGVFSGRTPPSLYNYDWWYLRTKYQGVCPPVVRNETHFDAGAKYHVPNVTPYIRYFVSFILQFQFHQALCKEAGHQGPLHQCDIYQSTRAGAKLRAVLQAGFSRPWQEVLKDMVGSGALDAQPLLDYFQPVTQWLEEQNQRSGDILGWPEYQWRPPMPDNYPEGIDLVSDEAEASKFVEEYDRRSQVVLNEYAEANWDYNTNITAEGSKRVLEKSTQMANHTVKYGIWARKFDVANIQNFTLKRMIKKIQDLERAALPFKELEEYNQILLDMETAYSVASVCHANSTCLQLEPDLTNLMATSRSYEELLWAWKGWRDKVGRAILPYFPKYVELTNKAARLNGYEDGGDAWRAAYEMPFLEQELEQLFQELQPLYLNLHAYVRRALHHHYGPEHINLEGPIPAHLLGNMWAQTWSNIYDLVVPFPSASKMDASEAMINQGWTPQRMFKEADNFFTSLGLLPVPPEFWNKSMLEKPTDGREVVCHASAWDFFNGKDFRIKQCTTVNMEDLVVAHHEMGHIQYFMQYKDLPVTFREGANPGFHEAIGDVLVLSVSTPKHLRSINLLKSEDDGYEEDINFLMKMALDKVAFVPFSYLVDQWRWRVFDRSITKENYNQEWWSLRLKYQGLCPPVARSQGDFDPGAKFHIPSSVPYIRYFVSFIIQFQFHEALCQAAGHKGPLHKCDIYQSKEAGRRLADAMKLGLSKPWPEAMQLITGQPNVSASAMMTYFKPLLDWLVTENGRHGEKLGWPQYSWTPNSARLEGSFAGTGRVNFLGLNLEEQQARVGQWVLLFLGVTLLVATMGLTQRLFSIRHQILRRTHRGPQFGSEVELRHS
Experimental: (§1) Enzyme assay was conducted in 384-well microplates format. Activity was monitored by measuring increase in fluorescence (excitation @320 nm, emission @405 nm) over a 60 minute time course using a BMG Polarstar Galaxy fluorescent plate reader. Compound IC50 values were determined using 10-pt concentration ranges. Rates of substrate hydrolysis were determined from time courses and converted to percent inhibition. Percent inhibition was plotted versus compound concentration and fit to the four parameter logistic equation by non-linear regression using Prism Graphpad software.

[2] = biological target: Angiotensin-converting enzyme 2 (Homo sapiens, UniProt Q9BYF1); experiment: Enzyme Inhibition Assay; details: pH 6.5; 22 °C
Experimental: as §1

Carboxypeptidase A1 = biological target: T2, Carboxypeptidase A1 (Bos taurus, UniProt P00730); experiment: CPA Inhibition Assay; details: pH 7.5; 22 °C
T2 sequence (P00730 whole entry): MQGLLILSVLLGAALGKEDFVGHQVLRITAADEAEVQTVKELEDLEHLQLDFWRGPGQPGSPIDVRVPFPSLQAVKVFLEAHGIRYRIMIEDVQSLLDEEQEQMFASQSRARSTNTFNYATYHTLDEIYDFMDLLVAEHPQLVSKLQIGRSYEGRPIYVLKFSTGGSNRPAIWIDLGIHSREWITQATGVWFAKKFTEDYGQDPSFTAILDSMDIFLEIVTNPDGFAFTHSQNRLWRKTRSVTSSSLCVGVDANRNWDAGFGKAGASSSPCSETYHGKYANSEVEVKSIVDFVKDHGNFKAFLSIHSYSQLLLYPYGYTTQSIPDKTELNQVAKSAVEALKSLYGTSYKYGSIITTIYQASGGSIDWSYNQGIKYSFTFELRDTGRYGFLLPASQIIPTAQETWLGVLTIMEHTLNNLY
Experimental: as §1, with “Assay for the inhibition of carboxypeptidase A (CPDA)” for “Enzyme assay”, “96-well” for “384-well”, “decrease” for “increase”, “absorbance (328” for “fluorescence (excitation @320 nm, emission @405”, “15” for “60”, “Spectromax 250 absorbance” for “BMG Polarstar Galaxy fluorescent”

Chain of Angiotensin-converting enzyme 2 (Q9BYF1 whole entry): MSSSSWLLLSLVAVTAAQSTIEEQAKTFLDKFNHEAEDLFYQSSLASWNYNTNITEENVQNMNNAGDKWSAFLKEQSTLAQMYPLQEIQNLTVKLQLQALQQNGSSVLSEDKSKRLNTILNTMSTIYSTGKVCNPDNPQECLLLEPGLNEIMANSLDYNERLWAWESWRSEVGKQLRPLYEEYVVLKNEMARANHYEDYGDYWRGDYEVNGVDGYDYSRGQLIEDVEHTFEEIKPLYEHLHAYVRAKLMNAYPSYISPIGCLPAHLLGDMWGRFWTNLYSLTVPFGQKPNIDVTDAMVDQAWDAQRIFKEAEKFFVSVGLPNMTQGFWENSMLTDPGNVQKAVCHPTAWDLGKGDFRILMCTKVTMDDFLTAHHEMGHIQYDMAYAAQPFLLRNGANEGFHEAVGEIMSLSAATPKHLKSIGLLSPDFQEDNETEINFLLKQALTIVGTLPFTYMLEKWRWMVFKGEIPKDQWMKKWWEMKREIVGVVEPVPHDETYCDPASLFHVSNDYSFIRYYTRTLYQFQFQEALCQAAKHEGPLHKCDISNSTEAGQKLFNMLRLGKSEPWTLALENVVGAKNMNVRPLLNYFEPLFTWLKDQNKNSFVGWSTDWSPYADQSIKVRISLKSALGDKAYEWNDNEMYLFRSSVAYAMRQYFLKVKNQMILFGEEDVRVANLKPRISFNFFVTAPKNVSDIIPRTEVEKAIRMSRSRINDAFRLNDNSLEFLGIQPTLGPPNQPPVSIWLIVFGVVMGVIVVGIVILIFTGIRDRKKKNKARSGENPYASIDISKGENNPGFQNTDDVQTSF

Row | IC50 [1] [nM] | IC50 [2] [nM] | IC50 (Carboxypeptidase A1) [nM] | SMILES
1 | > 10000 | 32 | > 10000 | Cc1ccc(Cn2cncc2C[C@H](N[C@@H](CC(C)C)C(=O)O)C(=O)O)cc1 [(2S)-2-{[(1S)-1-carboxy-2-{1-[(4-methylphenyl)methyl]-1H-imidazol-5-yl}ethyl]amino}-4-methylpentanoic acid]
2 | > 10000 | 4.2 | > 10000 | Cc1cccc(Cn2cncc2C[C@H](N[C@@H](CC(C)C)C(=O)O)C(=O)O)c1 [(2S)-2-{[(1S)-1-carboxy-2-{1-[(3-methylphenyl)methyl]-1H-imidazol-5-yl}ethyl]amino}-4-methylpentanoic acid]
3 |  | 270 |  | CC(C)C[C@H](N[C@@H](Cc1cncn1CC1CCCCC1)C(=O)O)C(=O)O [(2S)-2-{[(1S)-1-carboxy-2-[1-(cyclohexylmethyl)-1H-imidazol-5-yl]ethyl]amino}-4-methylpentanoic acid]
4 |  | 340 |  | O=C(O)[C@H](Cc1ccccc1)N[C@@H](Cc1cncn1Cc1ccccc1)C(=O)O [(2S)-2-{[(1S)-2-(1-benzyl-1H-imidazol-5-yl)-1-carboxyethyl]amino}-3-phenylpropanoic acid]
5 |  | 52 |  | CC(C)C[C@H](N[C@@H](Cc1cncn1Cc1ccc(OC(F)(F)F)cc1)C(=O)O)C(=O)O [(2S)-2-{[(1S)-1-carboxy-2-(1-{[4-(trifluoromethoxy)phenyl]methyl}-1H-imidazol-5-yl)ethyl]amino}-4-methylpentanoic acid]
6 | > 10000 | 10 | 12000 | CC(C)C[C@H](N[C@@H](Cc1cncn1C(C)(C)C1CCCCC1)C(=O)O)C(=O)O [(2S)-2-{[(1S)-1-carboxy-2-[1-(2-cyclohexylpropan-2-yl)-1H-imidazol-5-yl]ethyl]amino}-4-methylpentanoic acid]
7 |  | 76 |  | CC(C)C[C@H](N[C@@H](Cc1cncn1Cc1ccc([N+](=O)[O-])cc1)C(=O)O)C(=O)O [(2S)-2-{[(1S)-1-carboxy-2-{1-[(4-nitrophenyl)methyl]-1H-imidazol-5-yl}ethyl]amino}-4-methylpentanoic acid]
8 |  | 300 | 2800 | CC[C@H](N[C@@H](Cc1cncn1Cc1ccccc1)C(=O)O)C(=O)O [(2S)-2-{[(1S)-2-(1-benzyl-1H-imidazol-5-yl)-1-carboxyethyl]amino}butanoic acid]
9 |  | 290 |  | Cc1ccccc1Cn1cncc1C[C@H](N[C@@H](CC(C)C)C(=O)O)C(=O)O [(2S)-2-{[(1S)-1-carboxy-2-{1-[(2-methylphenyl)methyl]-1H-imidazol-5-yl}ethyl]amino}-4-methylpentanoic acid]
10 | > 10000 | 10 | > 10000 | Cc1ccc(Cn2cncc2C[C@H](N[C@@H](CC(C)C)C(=O)O)C(=O)O)cc1C [(2S)-2-{[(1S)-1-carboxy-2-{1-[(3,4-dimethylphenyl)methyl]-1H-imidazol-5-yl}ethyl]amino}-4-methylpentanoic acid]
11 |  | 21 | > 10000 | CC(C)C[C@H](N[C@@H](Cc1cncn1Cc1ccc(Cl)cc1)C(=O)O)C(=O)O [(2S)-2-{[(1S)-1-carboxy-2-{1-[(4-chlorophenyl)methyl]-1H-imidazol-5-yl}ethyl]amino}-4-methylpentanoic acid]
12 | > 10000 | 1.4 | > 10000 | Cc1cc(C)cc(Cn2cncc2C[C@H](N[C@@H](CC(C)C)C(=O)O)C(=O)O)c1 [(2S)-2-{[(1S)-1-carboxy-2-{1-[(3,5-dimethylphenyl)methyl]-1H-imidazol-5-yl}ethyl]amino}-4-methylpentanoic acid]

Row | SMILES | IC50 [1] [nM] | IC50 [2] [nM] | IC50 (Carboxypeptidase A1) [nM]
13 | CC(C)C[C@H](N[C@@H](Cc1cncn1Cc1cc(Cl)cc(Cl)c1)C(=O)O)C(=O)O [MLN4760] | > 100000 | 0.44 | 27000
